In a melting point compilation (Tetko et al.; mined from patent text by program, amines drawn as free bases though some values may be those of a salt) one finds melting point data, which are given here for 66 compounds.

A word on the melting point: it is the temperature of the solid-liquid transition. `CCCC1CCCCc2c1oc(=O)c(C(c1ccccc1)C1CC1)c2O` (stereo unspecified) had a melting point of 60 to 65 °C.

Compound `CCOC(=O)/C(=N\OC1CCCCCCC1)c1csc(N)n1` came in with a melting point of 117 to 118 °C.

In turn, `Cc1nc2cc(-c3ccc4c(c3)C=C(C(=O)Nc3ccc(CN(C)C5CCOCC5)cc3)CCS4(=O)=O)ccc2o1` registered a melting point of 236 to 240 °C.

For the compound `CCCc1c(OCCCOc2cccc3ccccc23)ccc2c1OC(CCC(=O)O)(CCC(=O)O)CC2=O`, the melting point fell in the range of 164 to 167 °C.

Consider `COc1ccc2c(c1)C(C)(Cl)C(=S)N2` (stereo unspecified), for which the melting point was in the range of 202 to 204 °C.

On to `Clc1cccc(Nc2ncnc3[nH]nc(N4CCOCC4)c23)c1`, for which the melting point fell in the range of 275 to 276 °C.

Compound `Cc1ccc2c(c1)C(=O)c1ccccc1CC2` came in with a melting point of 34 to 35 °C.

Turning to `O=C(CCCCCCCCC(=O)N(CCO)CCO)N(CCO)CCO`, the melting point lay within 87 to 98 °C.

The compound `COC(=O)C(=C/c1cc(OC)c(OC)c(OC)c1)/C(C(N)=O)=C(/C)c1ccccc1` returned a melting point of 141 to 143 °C.

As for `CCCCC1NC(C(=O)O)Cc2c1[nH]c1ccccc21` (stereo unspecified), the melting point is 204 to 205 °C.

In turn, `CC(C)c1cccc(C(C)C)c1NS(=O)(=O)CC(=S)Oc1c(C(C)C)cccc1C(C)C` yielded a melting point of 169 to 171 °C.

`S=c1ncc2ccccc2[nH]1` had a melting point of 234 to 235 °C.

Compound `Cc1nc(NC(=O)C2c3ccccc3Oc3ccccc32)no1` showed a melting point of 186 °C.

As to `COc1ccc(-c2cc(F)cc3c2OC(CN)C3)c(OC)c1` (stereo unspecified), the melting point was 141 to 143 °C.

`Nc1ccc(-n2ccc(=O)cc2)cc1N` displayed a melting point of 257 to 260 °C.

In the case of `c1ccc(C2CN3CCN=C3S2)nc1` (stereo unspecified), the melting point worked out at 70 °C.

For the compound `Nc1n[nH]cc1-c1cccc(N2CCC(N3CCCC3)CC2)c1`, the melting point was in the range of 214 to 216 °C.

As for `CCOCn1c(C(F)(F)F)cc(C#N)c1-c1ccc(Cl)cc1`, the melting point fell in the range of 83 to 84.5 °C.

Compound `CCOC(C)n1c(Cl)c(Cl)c(C#N)c1-c1ccc(Cl)c(Cl)c1` (stereo unspecified) had a melting point of 124 to 126 °C.

`Cc1csc2c(CS(=O)c3nc4ccccc4[nH]3)nccc12` (stereo unspecified) registered a melting point of 186 to 188 °C.

`O=c1c(Br)c(O)ccn1Cc1ccc(O)cc1` registered a melting point of 102 to 108 °C.

In the case of `COc1cc(N)ccc1NC(=O)c1ccc(N)cc1`, the melting point lay in the range of 160 to 161 °C.

Regarding `COC(=O)c1nc(N2CCCC2)ccc1O`, the melting point lay in the range of 82.5 to 84 °C.

In the case of `CCCSc1ncc(CCCC(=O)O)n1Cc1ccccc1Cl`, the melting point was 98 to 99 °C.

Compound `O=S(=O)(Oc1ccc(S(=O)(=O)c2ccc(OS(=O)(=O)c3ccccc3)cc2)cc1)c1ccccc1` yielded a melting point of 133 to 134 °C.

On to `O=Cc1cc(Br)cnc1N1CCC(CO)C1` (stereo unspecified), for which the melting point fell in the range of 84 to 85.5 °C.

As for `CC(C)(C)SC[C@H](NC(=O)C(CS)Cc1ccccc1)C(=O)O` (stereo partly specified), the melting point lay in the range of 68 to 75 °C.

With `CC(C)(C)NCC(O)COc1cccc(NC(N)=O)c1C(N)=O` (stereo unspecified), the melting point was 189 to 191 °C.

In turn, `O=C(COc1ccc2ccccc2c1)N1CCCN(c2cc(N3CCCC3)nc(N3CCCC3)n2)CC1` had a melting point of 103 to 110 °C.

`CC1=C(c2ccncc2Cl)SCC(=O)N1` showed a melting point of 169 to 171 °C.

Turning to `COc1cc(COc2nn(-c3ccccc3)cc2CC2SC(=O)N(C)C2=O)ccc1OCc1nc(-c2ccco2)oc1C` (stereo unspecified), the melting point is 111 to 112 °C.

`O=C(c1cc(C(F)(F)F)cc(C(F)(F)F)c1)N1CCC2(CC1)C(=O)N(c1cc(Cl)ncn1)CN2c1ccccc1` registered a melting point of 212 to 214 °C.

`CC(CCc1ccccc1)N(C)C1CCC(c2ccc(OCc3ccccc3)cc2)CC1` (racemic) gave a melting point of 54.5 to 55.5 °C.

In turn, `NNC1=NS(=O)(=O)c2cc(Cl)ccc21` returned a melting point of 277 °C.

For the compound `N#Cc1ccc(NC(CNCC(=O)O)[N+](=O)[O-])cc1` (stereo unspecified), the melting point amounted to 230 °C.

In turn, `O=C(O)c1cnn2c(C(F)F)cc(-c3ccc(C(F)(F)F)c(OCC(F)(F)F)c3)nc12` returned a melting point of 261 °C.

In turn, `O=[N+]([O-])c1ccc(Cl)c2cc[nH]c12` displayed a melting point of 166 to 167 °C.

For the compound `CN1C(=O)OC(C)(C)c2cc(-c3cccc(Br)c3)ccc21`, the melting point lay in the range of 142 to 143 °C.

Regarding `Cn1nnc(-c2cccnc2)n1`, the melting point lay within 108 to 110 °C.

For the compound `NS(=O)(=O)c1ncccc1C(=O)OC1COC1`, the melting point was 140 to 142 °C.

The compound `CCCCCCCCOc1ccc2nc(C(=O)NCC(=O)O)c(O)cc2c1` returned a melting point of 153 to 155 °C.

In turn, `COCCn1c(C)nc2c(N)nc3ccccc3c21` showed a melting point of 230 to 233 °C.

For the compound `COC(=O)C=Cc1ccc(C(C)(C)C)cc1`, the melting point was determined as 35 °C.

Turning to `COCCCn1cc(Br)c2c3c(c(-c4ccccc4Cl)cc21)C(=O)NC3=O`, the melting point was in the range of 149 to 151 °C.

`CC(=O)OC(C(C(=O)C(C)(C)C)n1cncn1)C(Cl)(Cl)Cl` (stereo unspecified) registered a melting point of 115 to 119 °C.

The compound `O=P(O)(O)CCCCCCCCCCCO` yielded a melting point of 109 to 112 °C.

As to `O=c1[nH]ncc2[nH]c(-c3ccc(OC(F)F)c(OC4CC4)c3)c(Cc3ccccc3)c12`, the melting point is 215 to 217 °C.

The compound `O=C(c1cc2cccc(NS(=O)(=O)c3cccs3)c2[nH]1)N1CCCC1` returned a melting point of 248 to 249 °C.

Turning to `N#Cc1cnc2cc(C=O)sc2c1Cl`, the melting point was in the range of 188 to 189 °C.

In turn, `N#Cc1ccc2c(c1)OCC21C(=O)N(Cc2ccccn2)c2ccccc21` (stereo unspecified) returned a melting point of 151 to 153 °C.

The compound `O=C1CCCN1C(=O)Oc1ccccc1Cl` displayed a melting point of 92 to 93 °C.

The compound `COC(=O)c1ccc2c([N+](=O)[O-])cc3c(c2c1)C(CCl)CN3` (stereo unspecified) returned a melting point of 161 to 163 °C.

Turning to `CC(C)n1cc(C(=O)Nc2nncs2)c2ccc(Cl)cc21`, the melting point was in the range of 274 to 275 °C.

Compound `S=C=Nc1cc(Cl)ccc1N1CCOCC1` displayed a melting point of 86 to 87 °C.

For `CC(C)c1nsc(N)c1C#N`, the melting point lay within 130 to 132 °C.

Take `CC1=Cc2ccc(Cl)cc2C(c2ccc(N)c(C)c2)=NN1C(=O)NC1CC1`: the melting point lay within 233 to 236 °C.

Turning to `CCc1c(-c2ccc(OCc3ccccc3)cc2)c2ccc3c(OC)ccc1n32`, the melting point lay in the range of 78 to 81 °C.

In the case of `CCCC=NNc1cc2c(nn1)CCN(C(=O)c1ccc(-c3ccccc3)cc1)C2`, the melting point fell in the range of 260 to 262 °C.

Take `CC(N)Cc1ccc(C(N)=O)s1` (racemic): the melting point lay in the range of 91 to 92 °C.

On to `Cc1c(C)c(N2CCN(c3ccc(C(C)C)cc3)CC2)c(C)c2c1OC(C)(CO)C2` (stereo unspecified), for which the melting point fell in the range of 160 to 163 °C.

`CN1C(=O)CC[C@]2(C)c3ccc(Sc4nc5ccc(Cl)cc5s4)cc3CC[C@@H]12` displayed a melting point of 156 to 162 °C.

In turn, `COc1ccc(C2CCC(c3ccc4ccccc4c3)O2)cc1OC` (stereo unspecified) came in with a melting point of 74 to 77 °C.

For `CC1CN(c2ccc(-c3[nH]nc4c3C(=O)c3c(NC(=O)NN5CCOCC5)cccc3-4)cc2)CCN1` (stereo unspecified), the melting point came out at 230 °C.

The compound `COC(=O)CS(=O)(=O)c1ccc(N2CCN(c3ccc(C#N)cc3)C2=O)cc1` came in with a melting point of 246 to 249 °C.

`CCOC(=O)C=C(C)C=CC=C(C)C=Cc1c(C)sc(C)c1C` had a melting point of 88 to 89 °C.

As to `COC(=O)[C@@H](NC(=O)Nc1n[nH]c(=S)s1)c1ccccc1`, the melting point is 137 to 139 °C.
